ChEMBL document CHEMBL2069252, “Pyrazole diaminopyrimidines as dual inhibitors of KDR and Aurora B kinases” (Bioorg Med Chem Lett, 2012)
Converted amounts (≈) assume the structure as drawn. The source made the active and inactive calls. No cut-off for these calls is given here.

Legend:
[1] = target: T1, Vascular endothelial growth factor receptor 2 (Homo sapiens, UniProt P35968); experiment: Inhibition of KDR by HTRF analysis in presence of 1 mM ATP
Aurora kinase B = Aurora kinase B (Homo sapiens, UniProt Q96GD4); experiment: Inhibition of Aurora B kinase by HTRF analysis in presence of 1 mM ATP
NCI-H1299 = experiment: Cell cycle arrest in human NCI-H1299 cells assessed as induction of polyploidy after 48 hrs by Hoechst staining-based fluorescence microscopic analysis; type: functional; settings: NCI-H1299, 48 h
[2] = target: T1, Vascular endothelial growth factor receptor 2; experiment: Inhibition of human KDR autophosphorylation expressed in mouse NIH/3T3 cells; type: cell-based, NIH3T3
DOHH-2 = settings: Homo sapiens
Description: Antitumor activity against human DOHH2 cells xenografted in mouse tumor model assessed as tumor growth inhibition at 10 mg/kg, ip administered Q7d for 3 weeks

[3] = Aqueous solubility of the compound at pH 7.4 after 24 hrs by chemiluminescent nitrogen detection; type: physicochemical
Mus musculus [4] = experiment: Toxicity in mouse xenografted with human DOHH2 cells assessed as mortality at 10 mg/kg, ip administered Q7d for 3 weeks; settings: in vivo, 504 h
Mus musculus [5] = experiment: Toxicity in mouse xenografted with human DOHH2 cells assessed as weight loss at 10 mg/kg, ip administered Q7d for 3 weeks; settings: in vivo, 504 h
[6] = AUC in CD1(ICR) mouse at 10 mg/kg, ip; type: ADME, organism-based; parameters: dose 10 mg/kg, route intraperitoneal; settings: plasma
[7] = Metabolic stability of the compound in mouse liver microsomes assessed as compound remaining after 30 mins; type: ADME, Microsome; settings: read-out: Stability

T1 sequence (P35968 whole entry): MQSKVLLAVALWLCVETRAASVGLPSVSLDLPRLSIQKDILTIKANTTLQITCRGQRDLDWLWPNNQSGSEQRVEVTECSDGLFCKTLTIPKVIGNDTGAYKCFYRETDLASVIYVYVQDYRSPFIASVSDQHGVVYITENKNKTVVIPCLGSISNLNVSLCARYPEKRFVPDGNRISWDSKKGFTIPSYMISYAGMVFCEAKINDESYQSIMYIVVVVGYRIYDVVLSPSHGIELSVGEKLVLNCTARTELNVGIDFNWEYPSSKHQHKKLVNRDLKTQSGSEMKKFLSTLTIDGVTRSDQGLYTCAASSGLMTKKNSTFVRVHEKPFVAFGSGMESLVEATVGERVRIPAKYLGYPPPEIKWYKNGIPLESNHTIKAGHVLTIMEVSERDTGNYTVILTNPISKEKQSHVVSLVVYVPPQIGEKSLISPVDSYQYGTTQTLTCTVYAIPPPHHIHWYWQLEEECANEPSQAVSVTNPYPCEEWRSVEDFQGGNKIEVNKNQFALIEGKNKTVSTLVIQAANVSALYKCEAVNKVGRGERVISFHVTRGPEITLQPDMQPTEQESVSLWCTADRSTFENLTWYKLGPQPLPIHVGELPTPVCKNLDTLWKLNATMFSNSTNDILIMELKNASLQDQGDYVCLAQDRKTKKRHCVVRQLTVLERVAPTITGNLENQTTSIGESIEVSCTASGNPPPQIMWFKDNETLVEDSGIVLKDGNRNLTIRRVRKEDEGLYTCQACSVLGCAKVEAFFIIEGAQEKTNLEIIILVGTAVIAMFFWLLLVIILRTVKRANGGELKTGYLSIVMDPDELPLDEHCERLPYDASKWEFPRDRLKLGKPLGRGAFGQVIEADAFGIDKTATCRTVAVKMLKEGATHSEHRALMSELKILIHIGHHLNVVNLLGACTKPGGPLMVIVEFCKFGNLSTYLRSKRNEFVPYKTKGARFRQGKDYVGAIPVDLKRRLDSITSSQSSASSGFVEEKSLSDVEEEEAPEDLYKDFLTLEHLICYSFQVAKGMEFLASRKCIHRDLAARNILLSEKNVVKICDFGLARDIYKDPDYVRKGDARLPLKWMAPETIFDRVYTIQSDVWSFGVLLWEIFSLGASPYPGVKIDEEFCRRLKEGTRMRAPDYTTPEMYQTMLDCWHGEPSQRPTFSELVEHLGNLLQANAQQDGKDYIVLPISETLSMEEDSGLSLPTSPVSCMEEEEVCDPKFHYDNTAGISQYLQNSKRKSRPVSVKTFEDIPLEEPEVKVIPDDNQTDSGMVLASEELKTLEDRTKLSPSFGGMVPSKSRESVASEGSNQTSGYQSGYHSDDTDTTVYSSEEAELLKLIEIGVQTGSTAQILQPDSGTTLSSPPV
Sequence of Aurora kinase B (Q96GD4 whole entry): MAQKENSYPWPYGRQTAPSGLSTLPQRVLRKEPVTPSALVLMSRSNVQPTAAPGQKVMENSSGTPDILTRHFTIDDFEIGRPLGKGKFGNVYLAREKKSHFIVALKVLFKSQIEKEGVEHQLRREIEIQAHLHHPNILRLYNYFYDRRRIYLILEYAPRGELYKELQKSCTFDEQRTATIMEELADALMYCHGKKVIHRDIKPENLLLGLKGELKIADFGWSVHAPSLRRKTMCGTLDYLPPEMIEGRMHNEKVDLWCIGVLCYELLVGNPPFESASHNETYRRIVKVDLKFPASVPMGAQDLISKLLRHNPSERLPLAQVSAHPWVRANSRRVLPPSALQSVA

Row | Structure (SMILES) | IC50 [1] | IC50 (Aurora kinase B) | EC15 (NCI-H1299) | IC50 [2] | TGI (DOHH-2) | solubility at 24 h [3] | Activity (Mus musculus [4]) | Activity (Mus musculus [5]) | AUC [6] | remaining at 0.5 h [7]
1 | Cn1cc(Nc2ncc(F)c(N[C@H]3[C@@H](C(N)=O)[C@@H]4C=C[C@H]3C4)n2)cn1 | 329 nM | 29 nM | 111 nM | – | – | – | – | – | – | –
2 | Cn1cc(Nc2ncc(Cl)c(N[C@H]3[C@H]4CC[C@H](C4)[C@H]3C(N)=O)n2)cn1 | 19 nM | 31 nM | 15 nM | > 316 nM | – | – | – | – | – | –
3 | Cn1cc(Nc2ncc(Cl)c(N[C@H]3[C@@H](C(N)=O)[C@@H]4CC[C@H]3O4)n2)cn1 | 693 nM | 118 nM | 132 nM | – | – | – | – | – | – | –
4 | Cn1cc(Nc2ncc(Cl)c(N[C@H]3[C@@H](C(N)=O)[C@@H]4C=C[C@H]3C4)n2)cn1 | 14 nM | 29 nM | < 3 nM | 20 nM | Active | 78 µM (≈ 28.1 µg/mL) | Toxic | Toxic | 11.1 µM·h | 44%
5 | Cn1cc(Nc2ncc(C(N)=O)c(N[C@H]3[C@@H](C(N)=O)[C@@H]4C=C[C@H]3C4)n2)cn1 | 1540 nM | 197 nM | – | – | – | – | – | – | – | –
6 | Cc1cc(Nc2ncc(F)c(N[C@H]3[C@@H](C(N)=O)[C@@H]4C=C[C@H]3C4)n2)ccc1N1CCN(C)CC1 | – | 54 nM | 1 nM | – | – | – | – | – | – | –
7 | COc1cnc(Nc2cnn(C)c2)nc1N[C@H]1[C@@H](C(N)=O)[C@@H]2C=C[C@H]1C2 | 922 nM | 145 nM | – | – | – | – | – | – | – | –
8 | Cn1cc(Nc2ncc(Cl)c(N[C@@H]3[C@H]4CC[C@H](C4)[C@@H]3C(N)=O)n2)cn1 | 19 nM | 8 nM | 1 nM | 84 nM | – | – | – | – | – | –
9 | Cn1cc(Nc2ncc(C(F)(F)F)c(N[C@H]3C[C@@H]4CC[C@H]3C4)n2)cn1 | 827 nM | 61 nM | > 300 nM | – | – | – | – | – | – | –
10 | Cn1cc(Nc2ncc(C(F)(F)F)c(N[C@@H]3[C@H]4CC[C@H](C4)[C@@H]3C(N)=O)n2)cn1 | 74 nM | 66 nM | 10 nM | 61 nM | – | – | – | – | – | –
11 | CCn1cc(Nc2ncc(Cl)c(N[C@H]3[C@@H](C(N)=O)[C@@H]4C=C[C@H]3C4)n2)cn1 | 3 nM | 8 nM | < 1 nM | 8 nM | – | 70 µM (≈ 26.2 µg/mL) | – | – | 2.54 µM·h | 13%
12 | Nc1ncc(-c2cnn(CCO)c2)c2scc(-c3ccc(NC(=O)Nc4cccc(F)c4)cc3)c12 [ILORASERTIB] | – | – | 12 nM | – | – | – | – | – | – | –
13 | NC(=O)[C@@H]1[C@H](Nc2nc(Nc3cnn(CCO)c3)ncc2Cl)[C@H]2C=C[C@@H]1C2 | 6 nM | 19 nM | < 1 nM | 48 nM | – | 70 µM (≈ 27.3 µg/mL) | – | – | 5 µM·h | 45%
14 | Cn1cc(Nc2ncc([N+](=O)[O-])c(N[C@H]3[C@@H](C(N)=O)[C@@H]4C=C[C@H]3C4)n2)cn1 | 50 nM | 15 nM | 51 nM | > 316 nM | – | – | – | – | – | –
15 | NC(=O)[C@@H]1[C@H](Nc2nc(Nc3cnn(C[C@H]4CCCN4)c3)ncc2Cl)[C@H]2C=C[C@@H]1C2 | 15 nM | 15 nM | 11 nM | 49 nM | – | 86 µM (≈ 36.9 µg/mL) | – | – | 12.7 µM·h | 48%
16 | CNC(=O)[C@@H]1[C@H](Nc2nc(Nc3cnn(C)c3)ncc2C(F)(F)F)[C@H]2C=C[C@@H]1C2 | 68 nM | 45 nM | < 1 nM | > 316 nM | – | – | – | – | – | –
17 | Cn1cc(Nc2ncc(Cl)c(N[C@@H]3CCC[C@@H]3C(N)=O)n2)cn1 | 246 nM | 32 nM | 62 nM | – | – | – | – | – | – | –

Row | Structure (SMILES) | IC50 [1] | IC50 (Aurora kinase B) | EC15 (NCI-H1299) | IC50 [2] | TGI (DOHH-2) | solubility at 24 h [3] | Activity (Mus musculus [4]) | Activity (Mus musculus [5]) | AUC [6] | remaining at 0.5 h [7]
18 | NC(=O)[C@@H]1[C@H](Nc2nc(Nc3cnn(CC(=O)O)c3)ncc2Cl)[C@H]2C=C[C@@H]1C2 | 1 nM | 32 nM | 28 nM | > 316 nM | – | 71 µM (≈ 28.7 µg/mL) | – | – | – | > 95%
19 | Cn1cc(Nc2ncc(Cl)c(N[C@@H]3CCCC[C@@H]3C(N)=O)n2)cn1 | 169 nM | 135 nM | – | – | – | – | – | – | – | –
20 | Cn1cc(Nc2ncc(C(F)(F)F)c(N[C@H]3[C@@H](C(=O)NCCO)[C@@H]4C=C[C@H]3C4)n2)cn1 | 266 nM | 99 nM | < 1 nM | – | – | – | – | – | – | –
21 | CNC(=O)Cn1cc(Nc2ncc(Cl)c(N[C@H]3[C@@H](C(N)=O)[C@@H]4C=C[C@H]3C4)n2)cn1 | 6 nM | 26 nM | 11 nM | 89 nM | – | 72 µM (≈ 30 µg/mL) | – | – | 6.68 µM·h | 88%
22 | Cn1cc(Nc2nccc(N[C@H]3[C@@H](C(N)=O)[C@@H]4C=C[C@H]3C4)n2)cn1 | > 12000 nM | 294 nM | 93 nM | – | – | – | – | – | – | –
23 | Cc1cnc(Nc2cnn(C)c2)nc1N[C@H]1[C@@H](C(N)=O)[C@@H]2C=C[C@H]1C2 | 467 nM | 252 nM | 11 nM | – | – | – | – | – | – | –
24 | NC(=O)Cn1cc(Nc2ncc(Cl)c(N[C@H]3[C@@H](C(N)=O)[C@@H]4C=C[C@H]3C4)n2)cn1 | 18 nM | 25 nM | 19 nM | 167 nM | – | 68 µM (≈ 27.4 µg/mL) | – | – | 15 µM·h | 68%
25 | Cn1cc(Nc2ncc(Cl)c(N[C@@H]3CC[C@@H]3C(N)=O)n2)cn1 | 153 nM | 44 nM | 93 nM | – | – | – | – | – | – | –
26 | NC(=O)[C@@H]1[C@H](Nc2nc(Nc3cnn(C4CCNCC4)c3)ncc2Cl)[C@H]2C=C[C@@H]1C2 | 2 nM | 12 nM | 1 nM | 55 nM | – | 68 µM (≈ 29.2 µg/mL) | – | – | 2 µM·h | 76%
27 | Cn1cc(Nc2ncc(C(F)(F)F)c(Nc3ccccc3C(N)=O)n2)cn1 | 431 nM | 16 nM | 11 nM | – | – | – | – | – | – | –
28 | NC(=O)[C@@H]1[C@H](Nc2nc(Nc3cnn(CCN4CCOCC4)c3)ncc2Cl)[C@H]2C=C[C@@H]1C2 | 9 nM | 27 nM | < 3 nM | 78 nM | – | 85 µM (≈ 39 µg/mL) | – | – | – | 4%
29 | Cn1cc(Nc2ncc(C(F)(F)F)c(N[C@H]3[C@@H](C(=O)NC4CC4)[C@@H]4C=C[C@H]3C4)n2)cn1 | 292 nM | 51 nM | < 1 nM | – | – | – | – | – | – | –
30 | Cn1cc(Nc2ncc(C(F)(F)F)c(N[C@H]3[C@@H](C(N)=O)C[C@H]4C[C@@H]3C4(C)C)n2)cn1 | 264 nM | 43 nM | 39 nM | – | – | – | – | – | – | –
31 | Cn1cc(Nc2ncc(C(F)(F)F)c(N[C@H]3[C@@H](C(N)=O)[C@@H]4C=C[C@H]3C4)n2)cn1 | 12 nM | 28 nM | 3 nM | 35 nM | – | – | – | – | – | –
32 | NC(=O)[C@@H]1[C@H](Nc2nc(Nc3cnn([C@@H]4CCCNC4)c3)ncc2Cl)[C@H]2C=C[C@@H]1C2 | 2 nM | 12 nM | 1 nM | 44 nM | – | 70 µM (≈ 30 µg/mL) | – | – | 15.7 µM·h | 48%
33 | NC(=O)[C@@H]1[C@H](Nc2nc(Nc3cnn(Cc4ccccc4)c3)ncc2Cl)[C@H]2C=C[C@@H]1C2 | 7 nM | 12 nM | < 1 nM | 42 nM | – | 4 µM (≈ 1.74 µg/mL) | – | – | – | < 1%
